Measured values taken from patent US8119630B2 (Arrow Therapeutics Limited, priority 2002, dated 2012).

Experiments:
RSV = experiment: XTT assay, RSV-infected Hep-2 cells; format: cell-based, Respiratory Syncytial Virus (RSV); conditions: Table 2, Examples 75 to 82 and 125 to 184, Hep-2 cells infected with RSV, 6 days at 37° C.
Method: Examples 75 to 82 and 125 to 184 were tested according to the protocol described below.
(§1) The inner 60 wells of 96 well tissue culture plates were seeded with Hep-2 cells at 4×10^4 cells/well for compound activity and toxicity studies in 100 μl of medium and incubated at 37° C. overnight or until nearing confluency.
(§2) Cells were infected with 25 μl RSV previously titrated to give 80% cell kill. To each well 25 μM of test compound were added. The final DMSO concentration was 0.5%. Some 200 μl of sterile distilled water were added to the outer wells of the plate and incubated at 37° C. for 6 days. Some 0.25 μl/ml PMS were added to stock […] solution, final conc. 25 μM PMS. Then 25 μl warmed XTT/PMS solution were added to each well and incubated for 1 hour at 37° C.
Maximum OD450nm reading (uninfected, untreated control cells) corresponded to 100% inhibition. Minimum OD450nm readings (infected control cells) corresponded to 0% inhibition. Log 10 concentration was plotted against OD450nm and IC50 values were calculated from either reading 50% value from graph or using regression analysis.

Hep-2 cells = experiment: Toxicity studies (XTT), Hep-2 cells; format: cell-based; parameters: TC50 (6d): unit not given beside the values; conditions: for TC50 (6d): Table 2, Examples 75 to 82 and 125 to 184, 6d; for TC50 (2d): Table 2, Examples 75 to 82 and 125 to 184, 2d
Method: as §1
as §2, with “Some 200 μl of sterile distilled water were added to the outer wells of the plate and incubated at 37° C. for 6 days.” left out

[1] = human respiratory syncytial virus, 144 h

Row | Structure (SMILES) | IC50 (RSV; [1]) [µM] | TC50 (6d) (Hep-2 cells; in µM) | IC50 (RSV) [µM] | TC50 (2d) (Hep-2 cells) | TC50 (6d) (Hep-2 cells)
1 | O=C(Nc1cccc(F)c1)NC1N=C(c2ccccc2)c2ccccc2NC1=O (centres unmarked) [Example 128, 1-(3-Fluoro-phenyl)-3-(2-oxo-5-phenyl-2,3-dihydro-1H-benzo[e][1,4]diazepin-3-yl)-urea] | 6.1 | >50 |  |  | 
2 | COc1cccc(NC(=O)NC2N=C(c3ccccc3)c3ccccc3NC2=O)c1 (centres unmarked) [Example 129, 1-(3-Methoxy-phenyl)-3-(2-oxo-5-phenyl-2,3-dihydro-1H-benzo[e][1,4]diazepin-3-yl)-urea] | 4.9 | >50 |  |  | 
3 | O=C(Nc1cccc(C(F)(F)F)c1)NC1N=C(c2ccccc2)c2ccccc2NC1=O (centres unmarked) [Example 130, 1-(2-Oxo-5-phenyl-2,3-dihydro-1H-benzo[e][1,4]diazepin-3-yl)-3-(3-trifluoromethyl-phenyl)-urea] | 9.7 | 39.5 |  |  | 
4 | O=C(Nc1cccc(Cl)c1)NC1N=C(c2ccccc2)c2ccccc2NC1=O (centres unmarked) [Example 131] |  | >50 | 9.6 |  | 
5 | COc1cc(SC)ccc1C(=O)NC1N=C(c2ccccc2)c2ccccc2NC1=O (centres unmarked) [Example 132, 2-Methoxy-4-methylsulfanyl-N-(2-oxo-5-phenyl-2,3-dihydro-1H-1-benzo[e][1,4]diazepin-3-yl)-benzamide] |  | >50 | 6.3 |  | 
6 | CS(=O)(=O)c1ccc(C(=O)NC2N=C(c3ccccc3)c3ccccc3NC2=O)cc1 (centres unmarked) [Example 133, 4-Methanesulfonyl-N-(2-oxo-5-phenyl-2,3-dihydro-1H-benzo[e][1,4]diazepin-3-yl)-benzamide] | 6.2 | 77.2 |  |  | 
7 | COC(=O)c1ccc(C(=O)NC2N=C(c3ccccc3)c3ccccc3NC2=O)cc1 (centres unmarked) [Example 134, N-(2-Oxo-5-phenyl-2,3-dihydro-1H-benzo[e][1,4]diazepin-3-yl)terephthalamic acid methyl ester] | 6.5 | 77.1 |  |  | 
8 | O=C(NC1N=C(c2ccccc2)c2ccccc2NC1=O)c1ccccc1F (centres unmarked) [Example 135, 2-Fluoro-N-(2-oxo-5-phenyl-2,3-dihydro-1H-benzo[e][1,4]diazepin-3-yl)-benzamide] | 9.5 | >50 |  |  | 
9 | O=C(NC1N=C(c2ccccc2)c2ccccc2NC1=O)c1c(F)cccc1F (centres unmarked) [Example 136, 2,6-Difluoro-N (2-oxo-5-phenyl-2,3-dihydro-1H-benzo[e][1,4]diazepin-3-yl)-benzamide] |  | >50 | 8.7 |  | 
10 | CCCOc1ccccc1C(=O)NC1N=C(c2ccccc2)c2ccccc2NC1=O (centres unmarked) [Example 137, N-(2-Oxo-5-phenyl-2,3-dihydro-1H-benzo[e][1,4]diazepin-3-yl)-2-propoxy-benzamide] | 8.3 | >50 |  |  | 
11 | O=C(NC1N=C(c2ccccc2)c2ccccc2NC1=O)c1ccccc1I (centres unmarked) [Example 138, 2-Iodo-N-(2-oxo-5-phenyl-2,3-dihydro-1H-benzo[e][1,4]diazepin-3-yl)-benzamide] | 8.3 | 51 |  |  | 
12 | COC(=O)c1ccc(C(=O)NC2N=C(c3ccccc3)c3ccccc3NC2=O)c(OC)c1 (centres unmarked) [Example 139, 3-Methoxy-N-(2-oxo-5-phenyl-2,3-dihydro-H-benzo[e][1,4]diazepin-3-yl)-terephthalamic acid methyl ester] |  | 98 | 9.2 |  | 
13 | COc1cc(N)c(Cl)cc1C(=O)NC1N=C(c2ccccc2)c2ccccc2NC1=O (centres unmarked) [Example 140, 4-Amino-5-chloro-2-methoxy-N-(2-oxo-5-phenyl-2,3-dihydro-1H-benzo[e][1,4]diazepin-3-yl)-benzamide] | 2.5 | 68 |  |  | 
14 | CSc1ccccc1C(=O)NC1N=C(c2ccccc2)c2ccccc2NC1=O (centres unmarked) [Example 142, 2-Methylsulfanyl-N-(2-oxo-5-phenyl-2,3-dihydro-1H-benzo[e][1,4]diazepin-3-yl)-benzamide] | 9.4 | >50 |  |  | 
15 | COc1ccc(S(N)(=O)=O)cc1C(=O)NC1N=C(c2ccccc2)c2ccccc2NC1=O (centres unmarked) [Example 143, 2-Methoxy-N-(2-oxo-5-phenyl-2,3-dihydro-1H-benzo[e][1,4]diazepin-3-yl)-5-sylfamoyl-benzamide] |  |  | 3.8 | > 50 µM | 
16 | O=C(NC1N=C(c2ccccc2)c2ccccc2NC1=O)C(O)Cc1ccccc1 (centres unmarked) [Example 144, 2-Hydroxy-N-(2-oxo-5-phenyl-2,3-dihydro-1H-benzo[e][1,4]diazepin-3-yl)-3-phenyl-propionamide] | 5.5 |  |  | > 50 µM | 

Row | Structure (SMILES) | IC50 (RSV; [1]) [µM] | TC50 (6d) (Hep-2 cells; in µM) | IC50 (RSV) [µM] | TC50 (2d) (Hep-2 cells) | TC50 (6d) (Hep-2 cells)
17 | O=C(CC(O)c1ccccc1)NC1N=C(c2ccccc2)c2ccccc2NC1=O (centres unmarked) [Example 145, 3-Hydroxy-N-(2-oxo-5-phenyl-2,3-dihydro-1H-benzo[e][1,4]diazepin-3-yl)-3-phenyl-propionamide] | 1.9 |  |  | > 50 µM | 
18 | CN(C(=O)Nc1ccccc1F)C1N=C(c2ccccc2)c2ccccc2NC1=O (centres unmarked) [Example 146, 3-(2-Fluoro-phenyl)-1-methyl-1-(2-oxo-5-phenyl-2,3-dihydro-1H-benzo[e][1,4]diazepin-3-yl)-urea] | 9.5 |  |  | > 50 µM | 
19 | COc1cc([N+](=O)[O-])ccc1C(=O)N(C)C1N=C(c2ccccc2)c2ccccc2NC1=O (centres unmarked) [Example 147, 2-Methoxy-N-methyl-4-nitro-N-(2-oxo-5-phenyl-2,3-dihydro-1H-benzo[e][1,4]diazepin-3-yl)-benzamide] | 15.9 |  |  | > 50 µM | 
20 | CC(C)(C)NC(=O)NC1N=C(c2ccccc2)c2ccccc2NC1=O (centres unmarked) [Example 148, 1-tert-Butyl-3-(2-oxo-5-phenyl-2,3-dihydro-1H-benzo[e][1,4]diazepin-3-yl)-urea] | 5 | >100 |  | > 100 µM | 
21 | O=C(NC1CCCCC1)NC1N=C(c2ccccc2)c2ccccc2NC1=O (centres unmarked) [Example 149, 1-Cyclohexyl-3-(2-oxo-5-phenyl-2,3-dihydro-1H-benzo[e][1,4]diazepin-3-yl)-urea] | 1.5 | >100 |  | > 100 µM | 
22 | CCNC(=O)NC1N=C(c2ccccc2)c2ccccc2NC1=O (centres unmarked) [Example 150, 1-Ethyl-3-(2-oxo-5-phenyl-2,3-dihydro-1H-benzo[e][1,4]diazepin-3-yl)-urea] | 2 | >100 |  | > 100 µM | 
23 | CCCCNC(=O)NC1N=C(c2ccccc2)c2ccccc2NC1=O (centres unmarked) [Example 151, 1-Butyl-3-(2-oxo-5-phenyl-2,3-dihydro-1H-benzo[e][1,4]diazepin-3-yl)-urea] | 1.5 | >100 |  | > 100 µM | 
24 | Cc1cc(C(=O)NC2N=C(c3ccccc3)c3ccccc3NC2=O)oc1C (centres unmarked) [Example 152, 4,5-Dimethyl-furan-2-carboxylic acid (2-oxo-5-phenyl-2,3-dihydro-1H-benzo[e][1,4]diazepin-3-yl)amide] | 0.3 | 100 |  | > 100 µM | 
25 | O=C1Nc2ccc(Cl)cc2C(c2ccccc2)=NC1NC(=O)N1CCCCC1 (centres unmarked) [Example 153, Piperidine-1-carboxylic acid (7-chloro-2-oxo-5-phenyl-2,3-dihydro-1H-benzo[p][1,4]diazepin-3-yl)-amide] |  | >100 | 5 | > 100 µM | 
26 | O=C(NC1N=C(c2ccccc2)c2ccccc2NC1=O)c1cnccn1 (centres unmarked) [Example 162] |  | >100 | 2 | > 100 µM | 
27 | COc1cccc(C2=NC(NC(=O)C(C)C)C(=O)Nc3ccccc32)c1 (centres unmarked) [Example 163] |  |  | 5 | >100 | >100
28 | O=C(NC1N=C(c2ccccc2)c2ccc(Cl)cc2NC1=O)C1CCCCC1 (centres unmarked) [Example 168, Cyclohexanecarboxylic acid (8-chloro-2-oxo-5-phenyl-2,3-dihydro-1H-benzo[e][1,4]diazepin-3-yl)-amide] | 5 | >100 |  | > 100 µM | 
29 | Cc1ccc2c(c1)NC(=O)C(NC(=O)c1cccs1)N=C2c1ccccc1 (centres unmarked) [Example 169, Thiophene-2-carboxylic acid (8-methyl-2-oxo-5-phenyl-2,3-dihydro-1H-benzo[e][1,4]diazepin-3-yl)-amide] | 5 | 30 |  | 50 µM | 
30 | O=C(Nc1cccs1)NC1N=C(c2ccccc2)c2ccccc2NC1=O (centres unmarked) [Example 170, 1-(2-Oxo-5-phenyl-2,3-dihydro-1H-benzo[e][1,4]diazepin-3-yl)-3-thiophene-2-yl-urea] | 3.4 | >50 |  |  | 
31 | O=C(Nc1ccsc1)NC1N=C(c2ccccc2)c2ccccc2NC1=O (centres unmarked) [Example 171, 1-(2-Oxo-5-phenyl-2,3-dihydro-1H-benzo[e][1,4]diazepin-3-yl)-3-thiophene-3-yl-urea] | 4.8 | >50 |  |  | 
32 | O=C(NC1N=C(c2ccccc2)c2ccccc2NC1=O)c1ccccn1 (centres unmarked) [Example 172, Pyridine-2-carboxylic-acid (2-oxo-5-phenyl-2,3-dihydro-1H-benzo[e][1,4]diazepin-3-yl)-amide] | 6.4 | 137.8 |  |  | 
